For one data set, the system named is S. aureus. Kind of data set: Systemic (intravenous) S. aureus infection in MPLA-primed mice (FIG. 2). In kind it is in vivo. To be noted: MPLA 20 μg. As to the method:
FIG. 2. MPLA induces resistance to S. aureus and C. albicans infection. A) WT BALB/c mice were injected with intravenous MPLA (20 μg/mouse) or vehicle one and two days prior to intravenous inoculation with intravenous 10^8 cfu S. aureus or 10^8 cfu C. albicans. B) Kaplan Meier survival curve of vehicle- and MPLA-primed mice. (n=12 mice/group) after S. aureus inoculation. C) Core (rectal) body temperature assessed daily after S. aureus inoculation. D) S. aureus cfu per gram of tissue recoverable from whole spleen, lung, and kidney in vehicle and MPLA-primed mice at 3 days after S. aureus inoculation. E) Concentration of serum IL-6 2 hours after S. aureus inoculation or vehicle. F) Concentration of serum BUN 3 days after S. aureus inoculation or vehicle. G) Kaplan Meier survival curve of vehicle- and MPLA-primed mice. (n=12 mice/group) after intravenous 10^8 cfu C. albicans inoculation. H) Core (rectal) body temperature after C. albicans inoculation. Data shown as mean+/−SEM. For Kaplan-Meier plots *, p<0.05 via log-rank Mantel-Cox test. Otherwise, *, p<0.05 as determined by ANOVA with Tukey's post-hoc multiple comparison test.
MPLA is also effective in improving survival in models of systemic S. aureus and C. albicans infection. Mice treated with MPLA (20 μg) after a 20% cutaneous burn received intravenous challenge with S. aureus or C. albicans (1×10^8 CFU) on day 5 post-burn (FIG. 2).

Data set [1] has as its system tissue macrophages and neutrophils. The data set is described as follows: MPLA modulation of tissue macrophages and neutrophils (FIG. 10). In kind it is in vivo, mice. From the text:
FIG. 10. MPLA induces resistance to infection via modulation of tissue macrophages and neutrophils. A-C) Total splenic A) macrophages, B) neutrophils, and C) monocytes 3 days after S. aureus inoculation or vehicle in MPLA- and vehicle-primed mice. D) Representative image of F4/80^+ immunohistochemical staining (brown) in kidney 3 days after S. aureus inoculation in MPLA- and vehicle-primed mice E) Optical density quantification of F4/80^+ staining in kidneys. F) Mice were primed with MPLA or vehicle via intraperitoneal injection and 24 hours later pHrodo tagged S. aureus bioparticles were injected into the peritoneal cavity. Peritoneal leukocytes were harvested 6 hours later and assessed for pHrodo MFI via flow cytometry. G) Mice were primed with MPLA or vehicle via intraperitoneal injection and 24 hours later leukocytes were harvested from the peritoneal cavity. Respiratory burst was elicited by 45 minutes of PMA stimulation and DHR 123 MFI of macrophages, neutrophils, and monocytes was assessed by flow cytometry. H) Mice were administered intravenous clodronate-liposomes 24 hours prior to the first MPLA administration. Mice were then inoculated with intravenous 10^8 cfu S. aureus. Kaplan-Meier survival plot after S. aureus infection (n=15 mice/group). I) Mice were administered intravenous anti-Ly6G antibody 24 hours prior to the first MPLA administration. Mice were then inoculated with intravenous 10^8 cfu S. aureus. Kaplan-Meier survival plot after S. aureus infection (n=10 mice/group). J) C57BL6 WT and CCR2^−/− mice were primed with MPLA or vehicle and inoculated with intravenous 10^8 cfu S. aureus. Kaplan-Meier survival plot after S. aureus infection (n=10 mice/group). K) WT C57BL6 and RAG2^−/− mice were injected with intravenous MPLA or vehicle prior to intravenous inoculation with 10^8 cfu S. aureus. Kaplan-Meier survival plot (n=10 mice/group). Data shown as mean+/−SEM. For Kaplan-Meier plots *, p<0.05 via log-rank Mantel-Cox test. Otherwise, *, p<0.05 as determined by ANOVA with Tukey's post-hoc multiple comparison test
MPLA treatment increases macrophage, monocyte and neutrophil accumulation in the spleen (FIG. 10, A-C), increases macrophage accumulation in S. aureus abscesses (FIG. 10, D-E) and increases macrophage phagocytosis and respiratory burst functions (FIG. 10, F-G).

Data set [2] can be described thus: Physiological response of non-burned sheep to MPLA infusion (FIG. 6). The format is in vivo. To be noted: 1 hour monitoring. As to the method:
FIG. 6. Effects of MPLA infusion at the indicated doses over 10 minutes. Endpoints were recorded over a 1 hour period beginning at the end of the MPLA infusion.
In further studies, the response of sheep to MPLA infusion was assessed (FIG. 6). Instrumented sheep received infusions of MPLA at doses of 5, 10 or 30 ug/kg in 10 ml of endotoxin-free lactated Ringer's solution over 10 minutes. Physiological parameters were monitored for 1 hour after MPLA infusion. […] These observations indicate that sheep have sensitivity to MPLA that is very similar to humans.

The subject of data set [3] is P. aeruginosa. The data set is described as follows: Pseudomonas pneumonia in burned sheep treated with MPLA (FIG. 14). The format is in vivo. The protocol:
FIG. 14. MPLA treatment improves oxygenation and pulmonary mechanics and attenuates lactate production in sheep with Pseudomonas pneumonia. Studies were undertaken to assess oxygenation, pulmonary mechanics and hemodynamics in burned sheep treated with vehicle or MPLA prior to intrapulmonary challenge with P. aeruginosa. Sheep received a 20% total body surface area thermal burn followed 24 hours later by MPLA infusion. Intrapulmonary P. aeruginosa infection was induced at 24 hours after MPLA infusion. […] Hemodynamics and pulmonary function were measured for 24 hours after Pseudomonas infection.

In data set [4] the test system is P. aeruginosa. Particulars: 20 μg IP on 2 consecutive days, compared to vehicle.
The conditions of data set [5]: infusion; not at lower doses; cited from earlier work.
The conditions of data set [6]: in vivo; cited from earlier work.

The text below walks through data of US11389465B2, “Phosphorylated hexaacyl disaccharides (PHADs) for treating or preventing infections” (VANDERBILT UNIVERSITY, priority 2017, dated 2022).

Turning to Monophosphoryl Lipid A [MPLA], in the data set on S. aureus (FIG. 2 C-F, H), the infection-induced hypothermia entry was “attenuated infection-induced hypothermia”, the kidney injury result is “less kidney injury” and the plasma cytokine concentrations entry was “lower plasma cytokine concentrations”. Besides, in the data set with S. aureus (intravenous S. aureus 1×10^8 CFU), the survival is reported as 90%. The “macrophage, monocyte and neutrophil accumulation in the spleen” value in data set [1] (3 days after S. aureus inoculation) is listed as “increases”. The “beneficial effects of MPLA after depletion of macrophages or neutrophils” value in data set [1] (clodronate-liposomes or anti-Ly6G, survival after S. aureus, not with cells of the adaptive immune system) was “ablates the beneficial effects of MPLA”. The “macrophage phagocytosis and respiratory burst functions” value in data set [1] (intraperitoneal priming, peritoneal leukocytes) is given as “increases”. Also, in data set [1] (kidney, F4/80+ staining, 3 days after inoculation), the “macrophage accumulation in S. aureus abscesses” value was “increases”. The “temperature, heart rate or mean pulmonary artery pressure” value in data set [2] (MPLA 5 ug/kg infused over 10 minutes) is reported as “did not change”. In addition, the “temperature, heart rate and mean pulmonary artery pressure” value in data set [2] (MPLA 10 or 30 ug/kg infused over 10 minutes) is “all parameters were increased”. Moreover, in the data set on P. aeruginosa [3] (24 hours after Pseudomonas infection, compared to controls), the “oxygenation (PaO2/FiO2 ratio, oxygenation index, shunt fraction)” value is “significantly better”. The survival result in the data set with P. aeruginosa [3] (72 hour study period) is reported as “All sheep survived”. Besides, in the data set on P. aeruginosa [3] (MPLA vs vehicle), the PaCO2 result is “not significantly different between groups”. The “decrease in plasma protein caused by pulmonary infection” value in the data set with P. aeruginosa [3] (MPLA vs vehicle, difference not significant) is “trended towards attenuation”. Moreover, the plasma lactate concentration result with P. aeruginosa [3] (compared to controls) is listed as “significantly lower”. Besides, in the data set with P. aeruginosa [4] (6 hours after challenge), the “bacterial burden (peritoneal cavity)” value is recorded as “decreased bacterial burden”; the “neutrophil and monocyte recruitment to the site of infection” value is given as “markedly enhanced”. For the same substance, the infection-induced hypothermia result in the data set with P. aeruginosa [4] is reported as “attenuated infection-induced hypothermia”. In data set [5], the “MPLA dose at which humans show subjective changes consistent with systemic inflammation” value was 10 µg/kg. For the same substance, the “dose relative to LPS that can be administered to humans before adverse side effects occur” value in data set [6] was 1000-10,000 times.
